Experimental data as given in patent US7855290B2, “Pyridine derivatives and pyrimidine derivatives (3)” (Eisai R&D Management Co., Ltd., priority 2005, dated 2010).

Key:
[1] = test system: Human gastric cancer cells (MKN-45); experiment: Inhibitory activity against the proliferation of human gastric cancer cells (MKN-45); type: cell-based; settings: 72 h, MKN-45, 1% FBS RPMI1640, 3 days, Cell Counting Kit-8
In short: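 MKN-45 cells seeded overnight in RPMI1640 with 1% FBS, then exposed to compound for 3 days at 37° C, 5% CO2. Viability read with CCK-8 after about 1.5 hrs, absorbance at 450 nm (reference 660 nm).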

[2] = molecular target: T1, His6-HGFR (HGFR cytoplasmic domain) (Homo sapiens, UniProt P08581); experiment: Inhibitory activity against HGFR tyrosine kinase activity (HTRF); type: biochemical; settings: biotin-poly(GT), ATP, 30° C. 10 min
T1 construct: made in house; host or cells: Sf9 insect cells (Spodoptera frugiperda), baculovirus, pFastBac-HT vector
Description: The cytoplasmic domain of HGFR (Genbank Accession No. J02958) is a 1.3 kb DNA fragment beginning with Lys974 and including a stop codon, and described by Park et al. (Proc. Natl. Acad. Sci. U.S.A. 84(18), 6379-6383, 1987). The DNA fragment was isolated from the human placental cDNA library (purchased from Clontech) by PCR (TaKaRa Ex Taq™ Kit, purchased from TaKaRa) using two kinds of primers (SEQ ID NO: 1,5′-[…]-3′ and SEQ ID NO: 2,5′-[…]-3′, purchased from Invitrogen). The DNA fragment was cloned into a baculovirus transplace vector (pFastBac™-HT (purchased from GIBCO BRL)) to produce a recombinant construct. […] EGFR was purchased from Sigma (Production No. E-2645).
To the suspension of Sf9 cells (3×10^8 cells) in SF-900II medium (purchased from Invitrogen) containing 2% FBS was added a solution of HGFR transfected baculovirus above (4 ml), followed by a shaking culture at 27° C. for 48 hrs. The cells infected with the HGFR transfected baculovirus were centrifuged at 1,000 rpm, 4° C. for 5 min to remove the supernatant. The precipitated infected cells were suspended in 80 ml of ice-cold PBS, and centrifuged at 1,000 rpm, 4° C. for 5 min to remove the supernatant. The precipitated infected cells were suspended in 40 ml of ice-cold Lysis Buffer (50 mM Tris-HCl (pH 8.5), 5 mM 2-mercaptoethanol, 100 mM KCl, 1 mM PMSF and 1% (v/v) NP-40). The suspension was centrifuged at 12,000 rpm, 4° C. for 30 min to provide a supernatant.
The supernatant was loaded onto an Ni-NTA agarose column (3 ml, purchased from Qiagen) equilibrated with 30 ml of Buffer A (20 mM Tris-HCl (pH 8.5), 5 mM 2-mercaptoethanol, 500 mM KCl, 20 mM imidazole and 10% (v/v) glycerol). The column was washed with 30 ml of Buffer A, 6 ml of Buffer B (20 mM Tris-HCl (pH 8.5), 5 mM 2-mercaptoethanol, 1 M KCl, and 10% (v/v) glycerol) and 6 ml of Buffer A in this order. Then, the column was eluted with 6 ml of Buffer C (20 mM Tris-HCl (pH 8.5), 5 mM 2-mercaptoethanol, 100 mM KCl, 100 mM imidazole, and 10% (v/v) glycerol) to provide a fraction. The fraction was entrapped in a dialysis membrane (purchased from Spectrum Laboratories), dialyzed at 4° C. overnight with 1 L of dialysis buffer (20 mM Tris-HCl (pH 7.5), 10% (v/v) glycerol, 1 mM dithiothreitol, 0.1 mM Na3VO4 and 0.1 mM EGTA), and stored at −80° C. until used. […] The VEGFR2 cytoplasmic domain, the FGFR1 cytoplasmic domain, and the PDGFRβ cytoplasmic domain were fused with six histidine at the N terminus by the similar method to produce respective recombinant proteins (His6-VEGFR2, His6-FGFR1, and His6-PDGFRβ).
To each well of a 96-well round plate (purchased from NUNC, Production No. 163320) were added 10 μl of a solution for kinase reaction (200 mM Hepes (pH 7.4), 80 mM MgCl2, 16 mM MnCl2 and 2 mM Na3VO4), 250 ng of biotinylated poly(Glu4: Tyr1) (biotin-poly(GT), purchased from Japan Schering) (6 μl, 15-fold diluted with distilled water), 30 ng of His6-HGFR (10 μl, 60-fold diluted with 0.4% BSA) and a test substance dissolved in dimethylsulfoxide (4 μl, 100-fold diluted with 0.1% BSA) to mess up to 30 μl. To the well was added 10 μl of 4 μM ATP (purchased from Sigma) diluted with distilled water to incubate at 30° C. for 10 min, followed by adding 10 μl of 500 mM EDTA (pH 8.0) (purchased from Wako Pure Chemicals) to provide a kinase reaction solution.
The tyrosine-phosphorylated biotin-poly(GT) was detected using the Homogenous Time-Resolved Fluorescence (HTRF) method (Analytical Biochemistry, 269, 94-104, 1999).

T1 sequence (P08581 956-1390 limits assumed): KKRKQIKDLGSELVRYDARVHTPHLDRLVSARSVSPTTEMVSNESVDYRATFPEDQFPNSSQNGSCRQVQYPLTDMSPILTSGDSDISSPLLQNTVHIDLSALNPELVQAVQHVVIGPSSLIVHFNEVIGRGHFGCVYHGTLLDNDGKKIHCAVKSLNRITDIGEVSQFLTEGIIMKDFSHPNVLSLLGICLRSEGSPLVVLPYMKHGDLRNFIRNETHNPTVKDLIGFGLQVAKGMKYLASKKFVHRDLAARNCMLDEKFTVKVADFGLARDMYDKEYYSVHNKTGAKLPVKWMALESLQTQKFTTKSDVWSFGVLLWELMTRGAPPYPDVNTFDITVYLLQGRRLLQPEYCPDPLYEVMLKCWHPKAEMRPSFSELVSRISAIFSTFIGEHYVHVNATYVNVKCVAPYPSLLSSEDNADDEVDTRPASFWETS

Row | SMILES | IC50 [1] [nM] | IC50 [2] [nM]
1 | CN(C)[C@@H]1CCN(C(=O)Nc2cc(Oc3ccc(NC(=O)C4(C(=O)Nc5ccc(F)cc5)CC4)cc3)ccn2)C1 [Example 42, N-(4-{[2-({[(3R)-3-(Dimethylamino)pyrrolidin-1-yl]carbonyl}amino)pyridin-4-yl]oxy}phenyl)-N′-(4-fluorophenyl)cyclopropane-1,1-dicarboxamide] | 60 | 57
2 | CCN(CC)CCCN(C)C(=O)Nc1cc(Oc2ccc(NC(=O)C3(C(=O)Nc4ccc(F)cc4)CC3)cc2F)ccn1 [Example 44, N-(4-{[2-({[[3-(Diethylamino)propyl](methyl)amino]carbonyl}amino)pyridin-4-yl]oxy}-3-fluorophenyl)-N′-(4-fluorophenyl)cyclopropane-1,1-dicarboxamide] | 54 | 91
3 | CN1CCN(C2CCN(C(=O)Nc3cc(Oc4cc(F)c(NC(=O)C5(C(=O)Nc6ccc(F)cc6)CC5)cc4F)ncn3)CC2)CC1 [Example 101, N-(2,5-Difluoro-4-{[4-({[4-(4-methylpiperazin-1-yl)piperidin-1-yl]carbonyl}amino)pyrimidin-6-yl]oxy}phenyl)-N′-(4-fluorophenyl)cyclopropane-1,1-dicarboxamide] | 16 | 72
4 | CN1CCC(N(C)C(=O)Nc2cc(Oc3ccc(NC(=O)C4(C(=O)Nc5ccccc5F)CC4)c(F)c3)ccn2)CC1 [Example 57, N-(2-Fluoro-4-{[2-({[methyl(1-methylpiperidin-4-yl)amino]carbonyl}amino)pyridin-4-yl]oxy}phenyl)-N′-(2-fluorophenyl)cyclopropane-1,1-dicarboxamide] | 150 | 180
5 | CCN(CC)CCCNC(=O)Nc1cc(Oc2ccc(NC(=O)C3(C(=O)Nc4ccc(F)cc4)CC3)c(Cl)c2)ccn1 [Example 43, N-[2-Chloro-4-({2-[({[3-(diethylamino)propyl]amino}carbonyl)amino]pyridin-4-yl}oxy)phenyl]-N′-(4-fluorophenyl)cyclopropane-1,1-dicarboxamide] | 280 | 180
6 | CN(C)CCN1CCC(N(C)C(=O)Nc2cc(Oc3ccc(NC(=O)C4(C(=O)Nc5ccc(F)cc5)CC4)c(F)c3)ccn2)CC1 [Example 25, N-(4-{[2-({[{1-[2-(Dimethylamino)ethyl]piperidin-4-yl}(methyl)amino]carbonyl}amino)pyridin-4-yl]oxy}-2-fluorophenyl)-N′-(4-fluorophenyl)cyclopropane-1,1-dicarboxamide] | 19 | 85
7 | O=C(Nc1cc(Oc2ccc(NC(=O)C3(C(=O)Nc4ccc(F)cc4)CC3)cc2F)ncn1)N1CCC(N2CCC2)CC1 [Example 34, N-{4-[(6-{[(4-Azetidin-1-ylpiperidin-1-yl)carbonyl]amino}pyrimidin-4-yl)oxy]-3-fluorophenyl}-N′-(4-fluorophenyl)cyclopropane-1,1-dicarboxamide] | 190 | 73
8 | O=C(Nc1cc(Oc2ccc(NC(=O)C3(C(=O)Nc4ccc(F)cc4)CC3)cc2F)ccn1)N1CCOCC1 [Example 67, N-[3-Fluoro-4-({2-[(morpholin-4-ylcarbonyl)amino]pyridin-4-yl}oxy)phenyl]-N′-(4-fluorophenyl)-cyclopropane-1,1-dicarboxamide] | 52 | 17
9 | CN(C)[C@@H]1CCN(C(=O)Nc2cc(Oc3ccc(NC(=O)C4(C(=O)Nc5ccc(F)cc5)CC4)cc3F)ccn2)C1 [Example 36, N-(4-{[2-({[(3R)-3-(Dimethylamino)pyrrolidin-1-yl]carbonyl}amino)pyridin-4-yl]oxy}-3-fluorophenyl)-N′-(4-fluorophenyl)cyclopropane-1,1-dicarboxamide] | 22 | 46
10 | CN(C)CCN1CCN(C(=O)Nc2cc(Oc3ccc(NC(=O)C4(C(=O)Nc5ccc(F)cc5)CC4)cc3)ccn2)CC1 [Example 30, N-[4-({2-[({4-[2-(Dimethylamino)ethyl]piperazin-1-yl}carbonyl)amino]pyridin-4-yl}oxy)phenyl]-N′-(4-fluorophenyl)cyclopropane-1,1-dicarboxamide] | 39 | 44
11 | CN1CCN(C2CCN(C(=O)Nc3cc(Oc4ccc(NC(=O)C5(C(=O)Nc6ccccc6)CC5)c(F)c4)ccn3)CC2)CC1 [Example 54, N-(2-Fluoro-4-{[2-({[4-(4-methylpiperazin-1-yl)piperidin-1-yl]carbonyl}amino)pyridin-4-yl]oxy}phenyl)-N′-phenylcyclopropane-1,1-dicarboxamide] | 20 | 64
12 | CN1CCC(N(C)C(=O)Nc2cc(Oc3cc(F)c(NC(=O)C4(C(=O)Nc5ccc(F)cc5)CC4)cc3F)ncn2)CC1 [Example 100, N-(2,5-Difluoro-4-{[4-({[methyl(1-methylpiperidin-4-yl)amino]carbonyl}amino)pyrimidin-6-yl]oxy}phenyl)-N′-(4-fluorophenyl)cyclopropane-1,1-dicarboxamide] | 16 | 85
13 | O=C(Nc1cc(Oc2ccc(NC(=O)C3(C(=O)Nc4ccc(F)cc4)CC3)cc2)ccn1)N1CCC(CN2CCCC2)CC1 [Example 29, N-(4-Fluorophenyl)-N′-(4-{[2-({[4-(pyrrolidin-1-ylmethyl)piperidin-1-yl]-carbonyl}amino)pyridin-4-yl]oxy}phenyl)cyclopropane-1,1-dicarboxamide] | 50 | 63
14 | CN(C)[C@H]1CCN(C(=O)Nc2cc(Oc3ccc(NC(=O)C4(C(=O)Nc5ccc(F)cc5)CC4)cc3)ccn2)C1 [Example 41, N-(4-{[2-({[(3S)-3-(Dimethylamino)pyrrolidin-1-yl]carbonyl}amino)pyridin-4-yl]oxy}phenyl)-N′-(4-fluorophenyl)cyclopropane-1,1-dicarboxamide] | 42 | 44
15 | CN(C)C1CCN(C(=O)Nc2cc(Oc3ccc(NC(=O)C4(C(=O)Nc5ccc(F)cc5)CC4)c(F)c3)ccn2)CC1 [Example 18, N-(4-{[2-({[4-(Dimethylamino)piperidin-1-yl]carbonyl}amino)pyridin-4-yl]oxy}-2-fluorophenyl)-N′-(4-fluorophenyl)cyclopropane-1,1-dicarboxamide] | 33 | 53
16 | CN(C)C1CN(C2CCN(C(=O)Nc3cc(Oc4ccc(NC(=O)C5(C(=O)Nc6ccc(F)cc6)CC5)cc4F)ccn3)CC2)C1 [Example 21, N-[4-({2-[({4-[3-(Dimethylamino)azetidin-1-yl]piperidin-1-yl}carbonyl)amino]pyridin-4-yl}oxy)-3-fluorophenyl]-N′-(4-fluorophenyl)cyclopropane-1,1-dicarboxamide] | 27 | 62
17 | CN(C)C1CN(C2CCN(C(=O)Nc3cc(Oc4ccc(NC(=O)C5(C(=O)Nc6ccc(F)cc6)CC5)c(F)c4)ccn3)CC2)C1 [Example 14, N-[4-({2-[({4-[3-(Dimethylamino)azetidin-1-yl]piperidin-1-yl}carbonyl)amino]pyridin-4-yl}oxy)-2-fluorophenyl]-N′-(4-fluorophenyl)cyclopropane-1,1-dicarboxamide] | 17 | 60
